# Columns and labels:
# [1] = target: PARP1 (Homo sapiens, UniProt P09874); experiment: IC50 of dual-target inhibitors against PARP1; type: biochemical
# [2] = target: CDK4 (Homo sapiens, UniProt P11802); experiment: IC50 of dual-target inhibitors against CDK4; type: biochemical
# Method: The effectiveness of the present application was verified through the following tests: • (1) IC50 values of the dual-target inhibitors (Examples 1-11) against CDK4 were determined.
# Chain of PARP1 (P09874 whole entry): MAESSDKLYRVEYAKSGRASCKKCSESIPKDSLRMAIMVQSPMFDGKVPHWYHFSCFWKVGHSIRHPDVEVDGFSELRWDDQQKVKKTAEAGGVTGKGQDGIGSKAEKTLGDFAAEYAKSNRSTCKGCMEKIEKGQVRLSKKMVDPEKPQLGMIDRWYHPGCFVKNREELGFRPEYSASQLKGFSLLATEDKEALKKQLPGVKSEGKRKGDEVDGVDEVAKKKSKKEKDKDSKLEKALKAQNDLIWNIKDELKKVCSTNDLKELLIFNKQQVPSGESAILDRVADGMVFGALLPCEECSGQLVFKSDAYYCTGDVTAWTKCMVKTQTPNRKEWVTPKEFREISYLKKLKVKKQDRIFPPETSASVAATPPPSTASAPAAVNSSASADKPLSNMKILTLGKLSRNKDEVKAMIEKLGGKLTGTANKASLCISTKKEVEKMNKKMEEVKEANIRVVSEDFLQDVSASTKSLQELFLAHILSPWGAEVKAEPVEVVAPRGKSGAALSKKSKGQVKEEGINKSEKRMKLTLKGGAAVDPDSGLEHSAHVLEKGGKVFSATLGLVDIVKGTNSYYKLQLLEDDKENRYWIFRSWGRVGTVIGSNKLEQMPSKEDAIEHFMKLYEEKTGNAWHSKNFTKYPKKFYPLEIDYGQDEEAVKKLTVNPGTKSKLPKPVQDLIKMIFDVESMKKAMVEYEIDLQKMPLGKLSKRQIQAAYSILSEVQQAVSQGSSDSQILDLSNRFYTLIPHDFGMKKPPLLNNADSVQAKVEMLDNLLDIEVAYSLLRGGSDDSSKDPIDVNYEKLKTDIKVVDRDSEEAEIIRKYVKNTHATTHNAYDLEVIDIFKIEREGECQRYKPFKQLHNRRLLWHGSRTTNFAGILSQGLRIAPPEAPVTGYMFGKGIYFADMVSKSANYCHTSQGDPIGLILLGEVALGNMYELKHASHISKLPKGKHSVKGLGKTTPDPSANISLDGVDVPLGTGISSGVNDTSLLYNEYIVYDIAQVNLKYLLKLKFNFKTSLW
# Chain of CDK4 (P11802 whole entry): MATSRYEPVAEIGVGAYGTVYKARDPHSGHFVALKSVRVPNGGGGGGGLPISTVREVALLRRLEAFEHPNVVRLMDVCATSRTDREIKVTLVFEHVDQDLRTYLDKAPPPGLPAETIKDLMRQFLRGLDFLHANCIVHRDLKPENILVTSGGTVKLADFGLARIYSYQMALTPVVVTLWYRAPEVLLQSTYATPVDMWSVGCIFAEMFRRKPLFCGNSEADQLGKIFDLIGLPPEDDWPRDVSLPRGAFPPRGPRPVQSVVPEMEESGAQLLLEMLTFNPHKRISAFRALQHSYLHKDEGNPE
# Chain of CDK4 (P24385 whole entry partner): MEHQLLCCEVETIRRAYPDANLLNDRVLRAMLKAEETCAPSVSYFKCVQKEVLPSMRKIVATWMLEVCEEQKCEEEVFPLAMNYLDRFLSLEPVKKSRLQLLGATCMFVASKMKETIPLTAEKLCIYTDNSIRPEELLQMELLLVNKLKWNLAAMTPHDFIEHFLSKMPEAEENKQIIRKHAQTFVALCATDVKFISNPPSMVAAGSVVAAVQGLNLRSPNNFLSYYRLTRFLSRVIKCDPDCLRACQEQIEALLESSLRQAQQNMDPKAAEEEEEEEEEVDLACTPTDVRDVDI
SMILES,IC50 [1] [nM],IC50 [2] [nM]
Cc1nc2c(F)cc(-c3nc(Nc4cccc(Cc5n[nH]c(=O)c6ccccc56)c4)ncc3F)cc2n1C(C)C [Compound A1],100 to 500,< 10
Cc1nc2c(F)cc(-c3nc(Nc4ccc(C(=O)Nc5cccc(Cc6n[nH]c(=O)c7ccccc67)c5)cc4)ncc3F)cc2n1C(C)C [Compound A2],> 500,< 10
Cc1nc2c(F)cc(-c3nc(Nc4ccc(CC(=O)Nc5cccc(Cc6n[nH]c(=O)c7ccccc67)c5)cc4)ncc3F)cc2n1C(C)C [Compound A3],10 to 100,10 to 100
Cc1nc2c(F)cc(-c3nc(Nc4ccc(NC(=O)CCC(=O)Nc5cccc(Cc6n[nH]c(=O)c7ccccc67)c5)cc4)ncc3F)cc2n1C(C)C [Compound A4],100 to 500,< 10
Cc1nc2c(F)cc(-c3nc(Nc4cccc(C(=O)Nc5cccc(Cc6n[nH]c(=O)c7ccccc67)c5)c4)ncc3F)cc2n1C(C)C [Compound A5],> 500,10 to 100
Cc1nc2c(F)cc(-c3nc(Nc4ccc(Cc5n[nH]c(=O)c6ccccc56)cc4)ncc3F)cc2n1C(C)C [Compound B1],> 500,< 10
Cc1nc2c(F)cc(-c3nc(Nc4ccc(NC(=O)c5cc(Cc6n[nH]c(=O)c7ccccc67)ccc5F)cc4)ncc3F)cc2n1C(C)C [Compound C1],100 to 500,10 to 100
Cc1nc2c(F)cc(-c3nc(Nc4ccc(C(=O)N5CCN(c6ccc(NC(=O)c7cc(Cc8n[nH]c(=O)c9ccccc89)ccc7F)cc6)CC5)cc4)ncc3F)cc2n1C(C)C [Compound C2],> 500,10 to 100
Cc1nc2c(F)cc(-c3nc(Nc4ccc(C(=O)N5CCN(c6cccc(NC(=O)c7cc(Cc8n[nH]c(=O)c9ccccc89)ccc7F)c6)CC5)cc4)ncc3F)cc2n1C(C)C [Compound C3],> 500,10 to 100
Cc1nc2c(F)cc(-c3nc(Nc4ccc(N5CCN(C(=O)c6cc(Cc7n[nH]c(=O)c8ccccc78)ccc6F)CC5)cc4)ncc3F)cc2n1C(C)C [Compound C5],< 10,< 10
Cc1nc2c(F)cc(-c3nc(Nc4ccc(CN5CCN(C(=O)c6cc(Cc7n[nH]c(=O)c8ccccc78)ccc6F)CC5)cc4)ncc3F)cc2n1C(C)C [Compound C6],10 to 100,< 10
Cc1nc2c(F)cc(-c3nc(Nc4ccc(C(=O)N5CCN(C(=O)c6cc(Cc7n[nH]c(=O)c8ccccc78)ccc6F)CC5)cc4)ncc3F)cc2n1C(C)C [Compound C7],10 to 100,< 10
Cc1nc2c(F)cc(-c3nc(Nc4cccc(C(=O)N5CCN(C(=O)c6cc(Cc7n[nH]c(=O)c8ccccc78)ccc6F)CC5)c4)ncc3F)cc2n1C(C)C [Compound C8],10 to 100,10 to 100
Cc1nc2c(F)cc(-c3nc(Nc4ccc(CC(=O)N5CCN(C(=O)c6cc(Cc7n[nH]c(=O)c8ccccc78)ccc6F)CC5)cc4)ncc3F)cc2n1C(C)C [Compound C9],10 to 100,< 10
CN(C)C(=O)c1cc2cnc(NNC(=O)c3cc(Cc4n[nH]c(=O)c5ccccc45)ccc3F)nc2n1C1CCCC1 [Compound D1],100 to 500,> 500
CN(C)C(=O)c1cc2cnc(NCCCCCCNC(=O)c3cc(Cc4n[nH]c(=O)c5ccccc45)ccc3F)nc2n1C1CCCC1 [Compound D6],< 10,> 500
CN(C)C(=O)c1cc2cnc(N3CCN(C(=O)c4cc(Cc5n[nH]c(=O)c6ccccc56)ccc4F)CC3)nc2n1C1CCCC1 [Compound D9],< 10,> 500
CN(C)C(=O)c1cc2cnc(Nc3ccc(NC(=O)CNC(=O)c4cc(Cc5n[nH]c(=O)c6ccccc56)ccc4F)cc3)nc2n1C1CCCC1 [Compound D14],10 to 100,< 10
CN(C)C(=O)c1cc2cnc(NCCNC(=O)CNC(=O)c3cc(Cc4n[nH]c(=O)c5ccccc45)ccc3F)nc2n1C1CCCC1 [Compound E1],< 10,100 to 500
CC(C)[C@H](NC(=O)c1cc(Cc2n[nH]c(=O)c3ccccc23)ccc1F)C(=O)NCCNc1ncc2cc(C(=O)N(C)C)n(C3CCCC3)c2n1 [Compound E2],10 to 100,100 to 500
CN(C)C(=O)c1cc2cnc(NCCNC(=O)[C@H](Cc3c[nH]c4ccccc34)NC(=O)c3cc(Cc4n[nH]c(=O)c5ccccc45)ccc3F)nc2n1C1CCCC1 [Compound E3],10 to 100,> 500
CN(C)C(=O)c1cc2nc(NCCNC(=O)[C@H](Cc3ccccc3)NC(=O)c3cc(Cc4n[nH]c(=O)c5ccccc45)ccc3F)ncc2n1C1CCCC1 [Compound E4],10 to 100,> 500
CC(C)[C@H](NC(=O)c1cc(Cc2n[nH]c(=O)c3ccccc23)ccc1F)C(=O)NNc1ncc2c(cc(C(=O)N(C)C)n2C2CCCC2)n1 [Compound E8],10 to 100,> 500
CN(C)C(=O)c1cc2cnc(NCCOC(=O)c3cc(Cc4n[nH]c(=O)c5ccccc45)ccc3F)nc2n1C1CCCC1 [Compound F1],10 to 100,> 500
CN(C)C(=O)c1cc2cnc(NCCCOC(=O)c3cc(Cc4n[nH]c(=O)c5ccccc45)ccc3F)nc2n1C1CCCC1 [Compound F2],10 to 100,> 500
